Measurements reported in patent US20170003292A1, “PAXIP1 AS A BIOMARKER FOR WEE1 INHIBITOR THERAPY” (H. LEE MOFFITT CANCER CENTER AND RESEARCH INSTITUT INC., priority 2014, published 2017).

Key:
Type in all cases: cell-based
[1] = test system: lung cancer cell lines; test: small-molecule inhibitor screen, apoptosis in lung cancer cell lines; details: AZD1775 in combination with cisplatin; multiple lung cancer cell lines
Excerpt: Since posttranslational phosphorylations are used by the DDR to coordinate cellular response to damage, 18 kinases found in this tBRCT PPIN were examined using a small-molecule inhibitor screen.

[2] = test system: WEE1; test: p-CDC2 (p-CDK1) blots as marker for WEE1 inhibition in lung cancer cell lines; details: 15 lung cancer cell lines; AZD1775 as single agent or in combination with cisplatin; in lines with detectable (or elevated) PAXIP1 and WEE1
Excerpt: FIG. 2 is a series of blots showing PAXIP1, WEE1, and p-CDC2 (a.k.a. p-CDK1) levels in lung cancer cell lines treated with AZD1775 and Cisplatin. D: DMSO; M: AZD1775 only; C: Cisplatin only; M+C: AZD1775 and Cisplatin combination. AZD1775 is an ATP mimetic that targets the kinase activity of WEE1 and is currently being evaluated in clinical trials for several tumor types. Phosphorylation of CDC2 (a.k.a. CDK1) by WEE1 can be used as a marker for WEE1 inhibition.

[3] = test system: H322 cells; test: mitotic index at the G2/M checkpoint in H322 cells overexpressing full length PAXIP1; details: H322 cells with overexpression of full length PAXIP1, after AZD1775 treatment
[4] = test system: H322 cells; test: caspase-3 mediated apoptosis in H322 cells overexpressing PAXIP1; details: PAXIP1 overexpression, treated over 72 hours, compared to cells with low levels of PAXIP1
[5] = test system: lung cancer cell lines H322, H1648, H1395, H157; test: cell viability by CellTiterGlo with synergy scores (Bliss model of independence); details: cells that express both PAXIP1 and WEE1; 72 h treatment; combination with cisplatin
Description: Lung adenocarcinoma cell lines 1-H322 (FIGS. 5A, 5B), H1648 (FIGS. 5E, 5F) and H1395 (FIGS. 5G, 5H) and a squamous lung cancer cell line H157 (FIG. 5C, 5D) were treated with AZD1775 and cisplatin either alone or in combination for 1 h and p-CDK1, PAXIP1 and WEE1 levels were measured (FIGS. 5A, 5C, 5E, […]). Cell lines were treated with AZD1775 and cisplatin for 72 h, cell viability was measured by CellTiterGlo and synergy scores were calculated (FIGS. 5B, 5D, 5F, 5H). Depicted in FIGS. 5B, 5D, 5F, and 5H are the three-dimensional dose-response surface curves with various combinations of drug concentrations (left) and the deviation from expected additive values determined by Bliss model of independence (right).

[6] = test system: WEE1 and PAXIP1 positive patient-derived xenografts (PDX); test: 3-D clonogenic assay of patient-derived xenograft (PDX) lung tumors, Chou-Talalay combination index; details: combination with cisplatin
Excerpt: Two tumors that were selected from a TMA of 68 lung tumors for 3-D clonogenic assays to test synergy of the combination of AZD1775 and cisplatin in these tumors. FIGS. 7A and 7C show percentage of tumor inhibition with different concentrations of AZD1775 and cisplatin. FIGS. 7B and 7D show combination index (CI) values obtained by applying the chou-[…] analysis to the percent inhibition values.

C=CCn1c(=O)c2cnc(Nc3ccc(N4CCN(C)CC4)cc3)nc2n1-c1cccc(C(C)(C)O)n1 [AZD1775, 2-allyl-1-(6-(2-hydroxypropan-2-yl)pyridin-2-yl)-6-((4-(4-methylpiperazin-1-yl)phenyl)amino)-1H-pyrazolo[3,4-d]pyrimidin-3(2H)-one]
apoptosis [1]: significant apoptosis
CDC2 phosphorylation [2]: repression of CDC2 phosphorylation
mitotic index at the G2/M checkpoint [3]: increased mitotic index
caspase-3 mediated apoptosis [4]: sustained increase in apoptosis
caspase-3 mediated apoptosis ([4]; listed as AZD 1775): sustained increase in caspase-3 mediated apoptosis
synergy of AZD1775 and cisplatin (cell viability) [5]: exhibit synergy
synergy of AZD1775 and cisplatin (tumor inhibition, combination index) [6]: exhibit synergy
